Assay results published in US20230085307A1, “PYRIDAZINONE COMPOUND AND HERBICIDE” (NISSAN CHEMICAL CORPORATION, priority 2019, published 2023).

What was measured:
[1] = test system: green foxtail; assay: Test Example 5: herbicidal effect by foliage application, plastic box (Table 20, symbol G); format: in vivo, green foxtail (Setaria viridis); details: foliage application, 320 g/ha, three weeks after application
In short: (§1)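 Foliar spray test: emulsion formulation diluted in water to a set application rate, sprayed onto 14-day-old plants raised in diluvial soil at 25° C to 30° C under glass. Both herbicidal effect and crop effect rated visually three weeks later.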

[2] = test system: velvetleaf; assay: Test Example 5: herbicidal effect by foliage application, plastic box (Table 20, symbol M); format: in vivo, velvetleaf (Abutilon theophrasti); details: foliage application, 320 g/ha, three weeks after application
In short: as §1

[3] = test system: Chinese sprangletop; assay: Test Example 3: herbicidal effect by foliage application, Wagner pot (Table 18, symbol D); format: in vivo, chinese sprangletop (Leptochloa chinensis); details: amount of applied herbicide 320 g/ha
In short: (§2)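 Plants were sown in alluvial soil held under 0.1–0.5 cm standing water and grown 14 days in a greenhouse at 25–30 °C. An emulsifiable formulation, water-diluted to the set dose, was then sprayed onto the foliage, and effects were scored three weeks later using previously defined criteria.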

[4] = test system: southern crabgrass; assay: Test Example 4: herbicidal effect by soil treatment (Table 19, symbol F); format: in vivo, southern crabgrass (Digitaria ciliaris); details: amount of applied herbicide 320 g/ha
In short: (§3)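 Step 1: sow seeds in sterilized diluvial soil, cover ~1.5 cm. Step 2: spray diluted emulsion onto soil surface at predetermined rate. Step 3: greenhouse, 25–30° C, three weeks. Step 4: grade effect on each plant by earlier criteria.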

[5] = test system: oval-leafed pondweed; assay: Test Example 2: herbicidal activity, application during weed generation under submerged conditions (Table 17, symbol C); format: in vivo, oval-leafed pondweed (Monochoria vaginalis); details: AAH 320 g/ha; application during weed generation, submerged conditions
Method: (§4) [Test Example 2] Herbicidal Activity Test by Application during Weed Generation under Submerged Conditions After alluvial soil was placed into 1/10000 are of Wagner pot, water was poured and mixed to form a submerged condition having a water depth of 4 cm. Seeds of late watergrass, Japanese bulrush, and oval-leafed pondweed were sowed in a mixed manner in the aforementioned pot, and the pot was placed in a greenhouse at 25° C. to 30° C. for growth of the plants. When late watergrass, Japanese bulrush, and oval-leafed pondweed were grown to one leaf stage to two leaf stage, the emulsion agent of the compound of the present invention prepared according to Formulation Example 2 was diluted with water so as to achieve a predetermined herbicide amount, and the diluted emulsion agent was applied to the surface of the water. Three weeks after the herbicide application, the effect of the herbicide on each plant was evaluated according to the criteria of Test Example 1.

[6] = test system: late watergrass; assay: Test Example 2: herbicidal activity, application during weed generation under submerged conditions (Table 17, symbol A); format: in vivo, late watergrass (Echinochloa oryzicola); details: AAH 320 g/ha; application during weed generation, submerged conditions
Method: as §4

[7] = test system: redroot pigweed; assay: Test Example 4: herbicidal effect by soil treatment (Table 19, symbol N); format: in vivo, redroot pigweed (Amaranthus retroflexus); details: amount of applied herbicide 320 g/ha
In short: as §3

[8] = test system: velvetleaf; assay: Test Example 4: herbicidal effect by soil treatment (Table 19, symbol M); format: in vivo, velvetleaf (Abutilon theophrasti); details: amount of applied herbicide 320 g/ha
In short: as §3

[9] = test system: southern crabgrass; assay: Test Example 5: herbicidal effect by foliage application, plastic box (Table 20, symbol F); format: in vivo, southern crabgrass (Digitaria ciliaris); details: foliage application, 320 g/ha, three weeks after application
In short: as §1

[10] = test system: barnyard grass; assay: Test Example 5: herbicidal effect by foliage application, plastic box (Table 20, symbol H); format: in vivo, barnyard grass (Echinochloa crus-galli); details: foliage application, 320 g/ha, three weeks after application
In short: as §1

[11] = test system: green foxtail; assay: Test Example 4: herbicidal effect by soil treatment (Table 19, symbol G); format: in vivo, green foxtail (Setaria viridis); details: amount of applied herbicide 320 g/ha
In short: as §3

[12] = test system: rice flat sedge; assay: Test Example 3: herbicidal effect by foliage application, Wagner pot (Table 18, symbol E); format: in vivo, rice flat sedge (Cyperus iria); details: amount of applied herbicide 320 g/ha
In short: as §2

[13] = test system: redroot pigweed; assay: Test Example 5: herbicidal effect by foliage application, plastic box (Table 20, symbol N); format: in vivo, redroot pigweed (Amaranthus retroflexus); details: foliage application, 320 g/ha, three weeks after application
In short: as §1

[14] = test system: Japanese bulrush; assay: Test Example 2: herbicidal activity, application during weed generation under submerged conditions (Table 17, symbol B); format: in vivo, Japanese bulrush (Schoenoplectus juncoides); details: AAH 320 g/ha; application during weed generation, submerged conditions
Method: as §4

[15] = test system: lambsquarters; assay: Test Example 5: herbicidal effect by foliage application, plastic box (Table 20, symbol O); format: in vivo, lambsquarters (Chenopodium album); details: foliage application, 320 g/ha, three weeks after application
In short: as §1

[16] = test system: barnyard grass; assay: Test Example 3: herbicidal effect by foliage application, Wagner pot (Table 18, symbol H); format: in vivo, barnyard grass (Echinochloa crus-galli); details: amount of applied herbicide 320 g/ha
In short: as §2

[17] = test system: lambsquarters; assay: Test Example 4: herbicidal effect by soil treatment (Table 19, symbol O); format: in vivo, lambsquarters (Chenopodium album); details: amount of applied herbicide 320 g/ha
In short: as §3

[18] = test system: barnyard grass; assay: Test Example 4: herbicidal effect by soil treatment (Table 19, symbol H); format: in vivo, barnyard grass (Echinochloa crus-galli); details: amount of applied herbicide 320 g/ha
In short: as §3

| SMILES | G: green foxtail, herbicidal effect grade [1] | M: velvetleaf, herbicidal effect grade [2] | herbicidal effect on D: Chinese sprangletop [3] | herbicidal effect, F: southern crabgrass [4] | herbicidal effect rating, C: oval-leafed pondweed [5] | herbicidal effect rating, A: late watergrass [6] | herbicidal effect, N: redroot pigweed [7] | herbicidal effect, M: velvetleaf [8] | F: southern crabgrass, herbicidal effect grade [9] | H: barnyard grass, herbicidal effect grade [10] | herbicidal effect, G: green foxtail [11] | herbicidal effect on E: rice flat sedge [12] | N: redroot pigweed, herbicidal effect grade [13] | herbicidal effect rating, B: Japanese bulrush [14] | O: lambsquarters, herbicidal effect grade [15] | herbicidal effect on H: barnyard grass [16] | herbicidal effect, O: lambsquarters [17] | herbicidal effect, H: barnyard grass [18] |
| --- | --- | --- | --- | --- | --- | --- | --- | --- | --- | --- | --- | --- | --- | --- | --- | --- | --- | --- |
| Cc1ccc2sc(-c3ccc(OC(F)F)cc3)c(-c3c(O)c(C)nn(C)c3=O)c2c1 [2-459] | 0 (Herbicidal rate of 5% or less (almost no effect)) | 4 (Herbicidal rate of 70% or more and less than 90%) | 0 (Herbicidal rate of 5% or less (almost no effect)) | 0 (Herbicidal rate of 5% or less (almost no effect)) | 0 (Herbicidal rate of 5% or less (almost no effect)) | 3 (Herbicidal rate of 40% or more and less than 70%) | 5 (Herbicidal rate of 90% or more (almost completely withered)) | 1 (Herbicidal rate of 5% or more and less than 20%) | 0 (Herbicidal rate of 5% or less (almost no effect)) | 0 (Herbicidal rate of 5% or less (almost no effect)) | 0 (Herbicidal rate of 5% or less (almost no effect)) | 0 (Herbicidal rate of 5% or less (almost no effect)) | 4 (Herbicidal rate of 70% or more and less than 90%) | 0 (Herbicidal rate of 5% or less (almost no effect)) | 4 (Herbicidal rate of 70% or more and less than 90%) | 3 (Herbicidal rate of 40% or more and less than 70%) | 4 (Herbicidal rate of 70% or more and less than 90%) | 0 (Herbicidal rate of 5% or less (almost no effect)) |
| Cc1cc2sc(-c3ccc(OC(F)(F)F)cc3)c(-c3c(O)c(C)nn(C)c3=O)c2cc1C [5-109] | – | – | – | – | 0 (Herbicidal rate of 5% or less (almost no effect)) | 2 (Herbicidal rate of 20% or more and less than 40%) | – | – | – | – | – | – | – | 0 (Herbicidal rate of 5% or less (almost no effect)) | – | – | – | – |
